According to publication PMC9511441, “Semisynthetic teicoplanin derivatives with dual antimicrobial activity against SARS-CoV-2 and multiresistant bacteria” (Scientific Reports, 2022):
Converted amounts (≈) assume the structure as drawn. Read-outs that look alike come from different tables or passages of the source.

Legend:
VeroE6 cells = test: Cytotoxicity in mock-infected VeroE6 cells (XTT); assay type: cell-based, African green monkey; details: mock-infected Vero E6 cells, three days, XTT
HEL cells = test: Cytotoxicity in mock-infected HEL cells (MTS); assay type: cell-based, human; details: mock-infected HEL cells, MTS, mean of 2–3 tests
SARS-CoV-2 pseudovirus [1] = test: microbe, parasite or virus in culture; assay type: cell-based; details: cathepsin-dependent endosomal pathway
SARS-CoV-2 pseudovirus [2] = test: microbe, parasite or virus in culture; assay type: cell-based; details: A549-AT cells, TMPRSS2-mediated uptake
[3] = molecular target: T1, human recombinant cathepsin L (Homo sapiens, UniProt P07711); test: biochemical; assay type: biochemical; details: read-out: Cathepsin L IC50; pH 5.5, Z-Phe-Arg-AMC substrate
T1 construct: made in house; host or cells: Escherichia coli
T1 sequence (P07711 114-333): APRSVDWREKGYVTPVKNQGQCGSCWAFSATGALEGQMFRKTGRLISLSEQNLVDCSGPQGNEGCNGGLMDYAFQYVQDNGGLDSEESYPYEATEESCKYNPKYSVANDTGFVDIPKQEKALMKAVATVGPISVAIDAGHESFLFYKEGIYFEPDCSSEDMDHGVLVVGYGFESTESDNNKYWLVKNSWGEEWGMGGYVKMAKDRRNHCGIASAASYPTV

E. faecalis = test: MIC, broth microdilution; assay type: cell-based; details: Enterococcus faecalis
S. aureus = test: MIC, broth microdilution; assay type: cell-based; details: Staphylococcus aureus
S. haemolyticus = test: MIC, broth microdilution; assay type: cell-based; details: Staphylococcus haemolyticus
S.pyogenes = test: MIC, broth microdilution; assay type: cell-based; details: Streptococcus pyogenes
E. faecium = test: microbe, parasite or virus in culture; assay type: cell-based; details: Enterococcus faecium
S. epidermidis = test: microbe, parasite or virus in culture; assay type: cell-based; details: Staphylococcus epidermidis
Calu-3 cells = test: Cytotoxicity in mock-infected Calu-3 cells (XTT); details: read-out: CC50, Calu-3 cells, three days

CC(=O)N[C@H]1[C@H](O[C@@H]2c3ccc(c(Cl)c3)Oc3cc4cc(c3O)Oc3ccc(cc3Cl)C[C@H]3NC(=O)[C@H](n5cc(COCCCC(F)(F)C(F)(F)C(F)(F)C(F)(F)C(F)(F)C(F)(F)F)nn5)c5ccc(O)c(c5)Oc5cc(O)cc(c5)[C@H](NC3=O)C(=O)N[C@H]4C(=O)N[C@H]3C(=O)N[C@@H]2C(=O)N[C@H](C(=O)O)c2cc(O)cc(O)c2-c2cc3ccc2O)O[C@H](CO)[C@@H](O)[C@@H]1O [Compound 4]
CC50 (VeroE6 cells): > 100 µM
CC50 (HEL cells): > 100 µM
Inhibition of pseudovirus entry in Vero cells (in words) (SARS-CoV-2 pseudovirus [1]): highly effective
Inhibition of pseudovirus entry in A549-AT cells (in words) (SARS-CoV-2 pseudovirus [2]): active, though less potent
IC50 [3]: 66 ± 1 µM
MIC (E. faecalis; read-out: Average MIC value, E. faecalis VAN^R,TEI^R/VanA, 1 strain): > 8 mg/L
MIC (E. faecalis; read-out: Average MIC value, E. faecalis VAN^S, TEI^S, 2 strains): 0.25 mg/L (≈ 0.136 µM)
MIC (E. faecalis; read-out: MIC value, E.faecalis JH2-2): 0.25 mg/L (≈ 0.136 µM)
MIC (E. faecalis; read-out: MIC value, E.faecalis OG1RF): 0.25 mg/L (≈ 0.136 µM)
MIC (E. faecalis; read-out: MIC value, E.faecalis V583, VAN,TEI/VanA): > 8 mg/L
MIC (S. aureus; ATCC 29213 / MSSA, read-out: MIC value, S. aureus ATCC29213, MSSA): 1 mg/L (≈ 0.542 µM)
MIC (S. aureus; MRSA / USA300, read-out: MIC value, S. aureus USA300, CA-MRSA): 2 mg/L (≈ 1.08 µM)
MIC (S. aureus; MRSA, read-out: Average MIC value, S. aureus CA-MRSA, 1 strain): 2 mg/L (≈ 1.08 µM)
MIC (S. aureus; MRSA, read-out: Average MIC value, S. aureus MRSA, 7 strains): 1.71 mg/L (≈ 0.929 µM)
MIC (S. aureus; MRSA, read-out: MIC value, S. aureus 73OL, MRSA): 2 mg/L (≈ 1.08 µM)
MIC (S. aureus; MRSA, read-out: MIC value, S. aureus 214OL, MRSA): 2 mg/L (≈ 1.08 µM)
MIC (S. aureus; MRSA, read-out: MIC value, S. aureus 1041OL, MRSA): 2 mg/L (≈ 1.08 µM)
MIC (S. aureus; MRSA, read-out: MIC value, S. aureus A6918, MRSA): 1 mg/L (≈ 0.542 µM)
MIC (S. aureus; MRSA, read-out: MIC value, S. aureus A6919, MRSA): 1 mg/L (≈ 0.542 µM)
MIC (S. aureus; MRSA, read-out: MIC value, S. aureus Mu50, MRSA): 2 mg/L (≈ 1.08 µM)
MIC (S. aureus; MRSA, read-out: MIC value, S. aureus N315, MRSA): 2 mg/L (≈ 1.08 µM)
MIC (S. aureus; MSSA / NEWMAN, read-out: MIC value, S. aureus Newman, MSSA): 2 mg/L (≈ 1.08 µM)
MIC (S. aureus; MSSA, read-out: Average MIC value, S. aureus MSSA, 4 strains): 1.75 mg/L (≈ 0.949 µM)
MIC (S. aureus; MSSA, read-out: MIC value, S. aureus MSSA476, MSSA): 2 mg/L (≈ 1.08 µM)
MIC (S. aureus; MSSA, read-out: MIC value, S. aureus SA564, MSSA): 2 mg/L (≈ 1.08 µM)
MIC (S. haemolyticus; S. haemolyticus mecA, 6 strains, read-out: Average MIC value): 6.8 mg/L (≈ 3.69 µM)
MIC (S. haemolyticus; S.haemolyticus DALB_R1, mecA, read-out: MIC value): 8 mg/L (≈ 4.34 µM)
MIC (S. haemolyticus; S.haemolyticus DALB_R2, mecA, read-out: MIC value): 8 mg/L (≈ 4.34 µM)
MIC (S. haemolyticus; S.haemolyticus DALB_R3, mecA, read-out: MIC value): 8 mg/L (≈ 4.34 µM)
MIC (S. haemolyticus; S.haemolyticus DALB_R4, mecA, read-out: MIC value): 8 mg/L (≈ 4.34 µM)
MIC (S. haemolyticus; S.haemolyticus DALB_R5, mecA, read-out: MIC value): 1 mg/L (≈ 0.542 µM)
MIC (S. haemolyticus; S.haemolyticus ORI_R1, mecA, read-out: MIC value): 8 mg/L (≈ 4.34 µM)
MIC (S.pyogenes; read-out: MIC value, S.pyogenes H232): 0.0625 mg/L (≈ 0.0339 µM)
MIC (S.pyogenes; read-out: MIC value, S.pyogenes H550): 0.0625 mg/L (≈ 0.0339 µM)
MIC (S.pyogenes; read-out: MIC value, S.pyogenes H578): 0.0625 mg/L (≈ 0.0339 µM)
MIC (E. faecium; read-out: Average MIC value, E. faecium VAN^R,TEI^R/VanA, 8 strains): > 8 mg/L
MIC (E. faecium; read-out: Average MIC value, E. faecium VAN^S, TEI^S, 1 strain): 0.25 mg/L (≈ 0.136 µM)
MIC (E. faecium; read-out: MIC value, E.faecium E335, VAN,TEI,LNZ/VanA): > 8 mg/L
MIC (E. faecium; read-out: MIC value, E.faecium E355, VAN,TEI,LNZ/VanA): > 8 mg/L
MIC (E. faecium; read-out: MIC value, E.faecium E832, VAN,TEI,LNZ/VanA): > 8 mg/L
MIC (E. faecium; read-out: MIC value, E.faecium E854, VAN,TEI,LNZ/VanA): > 8 mg/L
MIC (E. faecium; read-out: MIC value, E.faecium E859, VAN,TEI,LNZ/VanA): > 8 mg/L
MIC (E. faecium; read-out: MIC value, E.faecium E1114, VAN,TEI,LNZ/VanA): > 8 mg/L
MIC (E. faecium; read-out: MIC value, E.faecium E1131, VAN,TEI,LNZ/VanA): > 8 mg/L
MIC (E. faecium; read-out: MIC value, E.faecium E1132, VAN,TEI,LNZ/VanA): > 8 mg/L
MIC (E. faecium; read-out: MIC value, E.faecium TX0016): 0.25 mg/L (≈ 0.136 µM)
MIC (S. epidermidis; read-out: Average MIC value, S. epidermidis mecA, 6 strains): 0.812 mg/L (≈ 0.44 µM)
MIC (S. epidermidis; read-out: MIC value, S.epidermidis ORI_R1, mecA): 2 mg/L (≈ 1.08 µM)
MIC (S. epidermidis; read-out: MIC value, S.epidermidis ORI_R2, mecA): 1 mg/L (≈ 0.542 µM)
MIC (S. epidermidis; read-out: MIC value, S.epidermidis ORI_R3, mecA): 1 mg/L (≈ 0.542 µM)
MIC (S. epidermidis; read-out: MIC value, S.epidermidis ORI_R4, mecA): 0.25 mg/L (≈ 0.136 µM)
MIC (S. epidermidis; read-out: MIC value, S.epidermidis TEI_R1, mecA): 0.5 mg/L (≈ 0.271 µM)
MIC (S. epidermidis; read-out: MIC value, S.epidermidis TEI_R2, mecA): 0.125 mg/L (≈ 0.0678 µM)
CC50 (Calu-3 cells): 93 ± 11 µM
